Data from ChEMBL document CHEMBL1155320, “Semi-rigid tripeptide agonists of melanocortin receptors” (Bioorg Med Chem Lett, 2009).
One block for each compound: values may come before it. Activity calls are given as the source filed them. No cut-off for these calls is given here.

Columns and labels:
[1] = target: Melanocortin receptor 4 (Mus musculus) (UniProt P56450); assay: Agonistic activity against mouse MC4R at […]; type: functional
[2] = target: Melanocortin receptor 3 (Mus musculus) (UniProt P33033); assay: Agonistic activity against mouse MC3R at […]; type: functional
[3] = target: Melanocortin receptor 5 (Mus musculus) (UniProt P41149); assay: Agonistic activity against mouse MC5R at […]; type: functional
Melanocortin receptor 4 = Melanocortin receptor 4 (Mus musculus, UniProt P56450); assay: Agonistic activity against mouse MC4R; type: functional
Melanocortin receptor 5 = Melanocortin receptor 5 (Mus musculus, UniProt P41149); assay: Agonistic activity against mouse MC5R; type: functional
[4] = target: Melanocyte-stimulating hormone receptor (Mus musculus, UniProt Q01727); assay: Agonistic activity against mouse MC1R; type: functional
Mus musculus [5] = species on record: Mus musculus; assay: Selectivity index, ratio of EC50 for mouse MCR4R to EC50 for mouse MC1R
Mus musculus [6] = species on record: Mus musculus; assay: Selectivity index, ratio of EC50 for mouse MCR5R to EC50 for mouse MC1R

Chain of Melanocortin receptor 3 (Mus musculus) (P33033 whole entry): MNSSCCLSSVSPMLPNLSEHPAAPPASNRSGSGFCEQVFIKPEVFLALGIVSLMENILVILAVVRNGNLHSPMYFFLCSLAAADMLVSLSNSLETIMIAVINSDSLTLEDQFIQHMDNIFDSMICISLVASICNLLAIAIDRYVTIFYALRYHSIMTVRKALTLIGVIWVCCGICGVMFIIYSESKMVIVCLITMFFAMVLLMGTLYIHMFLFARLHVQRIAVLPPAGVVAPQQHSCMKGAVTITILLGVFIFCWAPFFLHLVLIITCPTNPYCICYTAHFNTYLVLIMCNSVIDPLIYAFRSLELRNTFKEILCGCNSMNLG
Chain of Melanocortin receptor 4 (Mus musculus) (P56450 whole entry): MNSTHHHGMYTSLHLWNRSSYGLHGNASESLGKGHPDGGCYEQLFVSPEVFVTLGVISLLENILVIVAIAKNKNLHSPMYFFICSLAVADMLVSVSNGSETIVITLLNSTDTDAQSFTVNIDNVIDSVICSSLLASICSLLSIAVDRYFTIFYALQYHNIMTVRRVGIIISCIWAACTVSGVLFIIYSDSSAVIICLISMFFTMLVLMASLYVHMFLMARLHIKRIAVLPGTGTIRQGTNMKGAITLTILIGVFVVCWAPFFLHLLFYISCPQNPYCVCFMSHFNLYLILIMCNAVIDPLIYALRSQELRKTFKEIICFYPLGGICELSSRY
Chain of Melanocortin receptor 5 (Mus musculus) (P41149 whole entry): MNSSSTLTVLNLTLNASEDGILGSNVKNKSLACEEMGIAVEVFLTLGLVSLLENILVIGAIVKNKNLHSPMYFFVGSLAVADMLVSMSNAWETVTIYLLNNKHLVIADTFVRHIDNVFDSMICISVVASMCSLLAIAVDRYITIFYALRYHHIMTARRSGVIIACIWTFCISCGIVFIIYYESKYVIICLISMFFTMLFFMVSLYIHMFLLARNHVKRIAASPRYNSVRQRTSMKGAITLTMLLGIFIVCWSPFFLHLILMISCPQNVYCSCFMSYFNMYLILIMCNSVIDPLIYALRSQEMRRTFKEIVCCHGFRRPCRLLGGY
Chain of Melanocyte-stimulating hormone receptor (Q01727 whole entry): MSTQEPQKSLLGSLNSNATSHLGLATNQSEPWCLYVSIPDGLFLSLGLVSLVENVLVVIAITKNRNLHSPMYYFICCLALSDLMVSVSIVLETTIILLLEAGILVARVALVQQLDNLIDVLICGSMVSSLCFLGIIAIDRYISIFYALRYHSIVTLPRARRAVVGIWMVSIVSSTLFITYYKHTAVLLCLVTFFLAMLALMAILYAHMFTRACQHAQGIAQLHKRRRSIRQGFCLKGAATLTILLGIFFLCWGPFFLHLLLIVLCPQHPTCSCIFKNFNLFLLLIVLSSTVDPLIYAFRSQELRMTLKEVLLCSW
Chain of Melanocortin receptor 5 (P41149 whole entry): as the sequence (P41149 whole entry) above
Chain of Melanocortin receptor 4 (P56450 whole entry): as the sequence (P56450 whole entry) above

- Activity [2]: inactive
Compound: N=C(N)NCCC[C@@H](NC(=O)[C@@H](Cc1ccccc1)NC(=O)[C@H](Cc1cnc[nH]1)NC(=O)/C=C/c1ccc(F)cc1F)C(N)=O

- Activity [2]: inactive
Compound: N=C(N)NCCCC(NC(=O)[C@@H](Cc1ccccc1)NC(=O)[C@H](Cc1cnc[nH]1)NC(=O)CCC(=O)c1ccc(F)cc1)C(N)=O (single isomer, unassigned)

- Activity [2]: inactive
Compound: COc1ccc(/C=C\C(=O)N[C@@H](Cc2cnc[nH]2)C(=O)N[C@H](Cc2ccccc2)C(=O)N[C@H](CCCNC(=N)N)C(N)=O)cc1

- Activity [2]: inactive
Compound: COc1ccc(/C=C/C(=O)N[C@@H](Cc2cnc[nH]2)C(=O)N[C@H](Cc2ccccc2)C(=O)NC(CCCNC(=N)N)C(N)=O)cc1 (single isomer, unassigned)

- Activity [2]: inactive
Compound: N=C(N)NCCCC(NC(=O)[C@@H](Cc1ccccc1)NC(=O)[C@H](Cc1cnc[nH]1)NC(=O)/C=C/c1cccc(O)c1)C(N)=O (single isomer, unassigned)

- Activity [1]: inactive
- Activity [2]: inactive
Compound: N=C(N)NCCCC(NC(=O)[C@@H](Cc1ccccc1)NC(=O)[C@H](Cc1cnc[nH]1)NC(=O)/C=C/c1ccc([N+](=O)[O-])cc1)C(N)=O (single isomer, unassigned)

- Activity [2]: inactive
Compound: N=C(N)NCCCC(NC(=O)[C@@H](Cc1ccccc1)NC(=O)[C@H](Cc1cnc[nH]1)NC(=O)/C=C/c1ccccc1)C(N)=O (single isomer, unassigned)
- Selectivity Index (Mus musculus [5]): 44
- Selectivity Index (Mus musculus [6]): 25

- Activity [2]: inactive
Compound: N=C(N)NCCC[C@@H](NC(=O)[C@@H](Cc1ccccc1)NC(=O)[C@H](Cc1cnc[nH]1)NC(=O)/C=C/c1ccc2c(c1)OCO2)C(N)=O

- Activity [1]: inactive
- Activity [2]: inactive
Compound: N=C(N)NCCCC(NC(=O)[C@@H](Cc1ccccc1)NC(=O)[C@H](Cc1cnc[nH]1)NC(=O)CCc1ccc(O)cc1)C(N)=O (single isomer, unassigned)

- Activity [2]: inactive
Compound: COc1ccccc1/C=C/C(=O)N[C@@H](Cc1cnc[nH]1)C(=O)N[C@H](Cc1ccccc1)C(=O)NC(CCCNC(=N)N)C(N)=O (single isomer, unassigned)

The next lines start with the compound.

Compound: N=C(N)NCCCC(NC(=O)[C@@H](Cc1ccccc1)NC(=O)[C@H](Cc1cnc[nH]1)NC(=O)c1ccc2cc(O)ccc2c1)C(N)=O (single isomer, unassigned)
- Activity [1]: inactive
- Activity [2]: inactive

Compound: N=C(N)NCCCC(NC(=O)[C@@H](Cc1ccccc1)NC(=O)[C@H](Cc1cnc[nH]1)NC(=O)CCCCc1ccc2c(c1)OCO2)C(N)=O (single isomer, unassigned)
- Activity [1]: inactive
- Activity [3]: inactive

Compound: N=C(N)NCCCC(NC(=O)[C@@H](Cc1ccccc1)NC(=O)[C@H](Cc1cnc[nH]1)NC(=O)CCC(=O)c1ccccc1)C(N)=O (single isomer, unassigned)
- Activity [2]: inactive

Compound: N=C(N)NCCCC(NC(=O)[C@@H](Cc1ccccc1)NC(=O)[C@H](Cc1cnc[nH]1)NC(=O)CCc1cccc(O)c1)C(N)=O (single isomer, unassigned)
- Activity [1]: inactive
- Activity [2]: inactive

Compound: N=C(N)NCCCC(NC(=O)[C@@H](Cc1ccccc1)NC(=O)[C@H](Cc1cnc[nH]1)NC(=O)/C(F)=C/c1ccccc1)C(N)=O (single isomer, unassigned)
- Activity [2]: inactive

Compound: CC(=O)N/C(=C\c1ccccc1)C(=O)N[C@@H](Cc1cnc[nH]1)C(=O)N[C@H](Cc1ccccc1)C(=O)NC(CCCNC(=N)N)C(N)=O (single isomer, unassigned)
- Activity [2]: inactive
- Activity [3]: inactive

Compound: N=C(N)NCCCC(NC(=O)[C@@H](Cc1ccccc1)NC(=O)[C@H](Cc1cnc[nH]1)NC(=O)CCc1c[nH]cn1)C(N)=O (single isomer, unassigned)
- Activity [2]: inactive

Compound: N=C(N)NCCCC(NC(=O)[C@@H](Cc1ccccc1)NC(=O)[C@H](Cc1cnc[nH]1)NC(=O)CCc1cccnc1)C(N)=O (single isomer, unassigned)
- Activity [1]: inactive
- Activity [2]: inactive

Compound: N=C(N)NCCCC(NC(=O)[C@@H](Cc1ccccc1)NC(=O)[C@H](Cc1cnc[nH]1)NC(=O)CCc1cccc2c1OCO2)C(N)=O (single isomer, unassigned)
- EC50 (Melanocortin receptor 4): 25.5 µM
- EC50 (Melanocortin receptor 5): 23 µM
- Activity [2]: inactive
- EC50 [4]: 7.28 µM

Compound: N#C/C(=C\c1ccc(O)cc1)C(=O)N[C@@H](Cc1cnc[nH]1)C(=O)N[C@H](Cc1ccccc1)C(=O)NC(CCCNC(=N)N)C(N)=O (single isomer, unassigned)
- Activity [2]: inactive

Compound: N=C(N)NCCCC(NC(=O)[C@@H](Cc1ccccc1)NC(=O)[C@H](Cc1cnc[nH]1)NC(=O)c1ccc2c(c1)OCO2)C(N)=O (single isomer, unassigned)
- Activity [2]: inactive
